Values of other authors in patent US20050065732A1, “Matrix methods for quantitatively analyzing and assessing the properties of botanical samples” (priority 2001, published 2005).

Columns and labels:
[1] = tested on: human umbilical vein endothelial cells (HUVECs)

urokinase-type plasminogen activator antigen synthesis (HUVECs)	Compound	PAI-1 antigen synthesis (HUVECs)	TPA mRNA (HUVECs)	TPA synthesis (HUVECs)	expression of PAI-1-specific mRNA (HUVECs)	plasminogen activator inhibitor type I (PAI-1) specific mRNA expression [1]	tissue-type plasminogen activator (t-PA) specific mRNA [1]
did not change	CC(C)=CCC[C@](C)(O[C@@H]1O[C@H](CO)[C@@H](O)[C@H](O)[C@H]1O)[C@H]1CC[C@]2(C)[C@@H]1[C@H](O)C[C@@H]1[C@@]3(C)CC[C@H](O)C(C)(C)[C@@H]3[C@@H](O[C@@H]3O[C@H](CO)[C@@H](O)[C@H](O)[C@H]3O[C@@H]3OC[C@@H](O)[C@H](O)[C@H]3O)C[C@]12C [NR1, notoginsenoside R1]	did not change	increased as much as twofold	dose- and time-dependent increase	not significantly affected		
	CC(C)(O)[C@@H]1CC[C@](C)([C@H]2[C@@H](O)C[C@@]3(C)[C@@H]4C[C@H](O[C@@H]5O[C@H](CO)[C@@H](O)[C@H](O)[C@H]5O)[C@H]5C(C)(C)[C@@H](O[C@@H]6OC[C@@H](O)[C@H](O)[C@H]6O)CC[C@@]56C[C@@]46CC[C@]23C)O1 [astragaloside IV]					decreased	increased
